By MIC is commonly meant the lowest concentration found to suppress growth.

Holding throughout (format): functional
The subject of experiment [1] is Culex pipiens pallens. Kind of experiment: Insecticidal activity against Culex pipiens pallens (mosquito) assessed as mortality at 0.10 ug/insect after 24 hr.
Experiment [2] has as its system Musca domestica. Kind of experiment: Insecticidal activity against Musca domestica (house fly) assessed as mortality at 4 ug/insect after 24 hr.
Experiment [3] deals with Trichophyton mentagrophytes. Kind of experiment: Antifungal activity against Trichophyton mentagrophytes IFO 32412 after 7 days by agar dilution method. The settings on record: IFO 32412, 168 h.
The subject of experiment [4] is Candida albicans. Kind of experiment: Antifungal activity against Candida albicans ATCC 10231 after 7 days by agar dilution method. The settings on record: ATCC 10231, 168 h.
Experiment [5] concerns Musca domestica. Kind of experiment: Insecticidal activity against Musca domestica (house fly) assessed as mortality at 0.10 ug/insect after 24 hr.
For experiment [6], the system named is Culex pipiens pallens. Kind of experiment: Insecticidal activity against Culex pipiens pallens (mosquito) assessed as mortality at 5 ug/insect after 24 hr.
Experiment [7] has as its system Wickerhamomyces anomalus. Put plainly: Antifungal activity against Wickerhamomyces anomalus OPS 308 after 7 days by agar dilution method. The settings on record: Hansenula anomala, OPS 308, 168 h.
The test system of experiment [8] is Musca domestica. Put plainly: Insecticidal activity against Musca domestica (house fly) assessed as mortality at 5 ug/insect after 24 hr.
The subject of experiment [9] is Culex pipiens pallens. Kind of experiment: Insecticidal activity against Culex pipiens pallens (mosquito) assessed as mortality at 0.25 ug/insect after 24 hr.
Experiment [10] concerns Culex pipiens pallens. Kind of experiment: Insecticidal activity against Culex pipiens pallens (mosquito) assessed as mortality at 0.5 ug/insect after 24 hr.
Experiment [11] concerns Culex pipiens pallens. Put plainly: Insecticidal activity against Culex pipiens pallens (mosquito) assessed as mortality at 1 ug/insect after 24 hr.
Experiment [12] has as its system Musca domestica. Put plainly: Insecticidal activity against Musca domestica (house fly) assessed as mortality at 0.5 ug/insect after 24 hr.
The test system of experiment [13] is Culex pipiens pallens. Put plainly: Insecticidal activity against Culex pipiens pallens (mosquito) assessed as mortality at 4 ug/insect after 24 hr.
Experiment [14] relates to Fusarium oxysporum. Put plainly: Antifungal activity against Fusarium oxysporum OPS 118 after 7 days by agar dilution method. The settings on record: OPS 118, 168 h. A general note: In agar dilution, organisms are placed on agar that contains the substance at set levels.
For experiment [15], the system named is Culex pipiens pallens. Kind of experiment: Insecticidal activity against Culex pipiens pallens (mosquito) assessed as mortality at 0.025 ug/insect after 24 hr.
Experiment [16] relates to Musca domestica. Kind of experiment: Insecticidal activity against Musca domestica (house fly) assessed as mortality at 2 ug/insect after 24 hr.
In experiment [17] the test system is Culex pipiens pallens. Kind of experiment: Insecticidal activity against Culex pipiens pallens (mosquito) assessed as mortality at 2 ug/insect after 24 hr.
Experiment [18] relates to Aspergillus niger. Kind of experiment: Antifungal activity against Aspergillus niger ATCC 16404 after 7 days by agar dilution method. As to conditions: ATCC 16404, 168 h.
Experiment [19] has as its system Culex pipiens pallens. Kind of experiment: Insecticidal activity against Culex pipiens pallens (mosquito) assessed as mortality at 0.05 ug/insect after 24 hr.
The subject of experiment [20] is Penicillium expansum. Kind of experiment: Antifungal activity against Penicillium expansum IFO 8800 after 7 days by agar dilution method. The settings on record: IFO 8800, 168 h.
In experiment [21] the test system is Musca domestica. Put plainly: Insecticidal activity against Musca domestica (house fly) assessed as mortality at 1 ug/insect after 24 hr.
For experiment [22], the system named is Musca domestica. Kind of experiment: Insecticidal activity against Musca domestica (house fly) assessed as mortality at 0.25 ug/insect after 24 hr.
Experiment [23] concerns Musca domestica. Kind of experiment: Insecticidal activity against Musca domestica (house fly) assessed as mortality at 0.05 ug/insect after 24 hr.
Experiment [24] deals with Culex pipiens pallens. Kind of experiment: Insecticidal activity against Culex pipiens pallens (mosquito) assessed as mortality at 0.002 ug/insect after 24 hr.
The test system of experiment [25] is Musca domestica. Put plainly: Insecticidal activity against Musca domestica (house fly) assessed as mortality at 0.031 ug/insect after 24 hr.
Experiment [26] concerns Musca domestica. Kind of experiment: Insecticidal activity against Musca domestica (house fly) assessed as mortality at 0.250 ug/insect after 24 hr.
For experiment [27], the system named is Culex pipiens pallens. Put plainly: Insecticidal activity against Culex pipiens pallens (mosquito) assessed as mortality at 0.008 ug/insect after 24 hr.
Experiment [28] has as its system Musca domestica. Kind of experiment: Insecticidal activity against Musca domestica (house fly) assessed as mortality at 0.015 ug/insect after 24 hr.
For experiment [29], the system named is Musca domestica. Kind of experiment: Insecticidal activity against Musca domestica (house fly) assessed as mortality at 0.125 ug/insect after 24 hr.
Experiment [30] deals with Musca domestica. Kind of experiment: Insecticidal activity against Musca domestica (house fly) assessed as mortality at 0.062 ug/insect after 24 hr.
Experiment [31] deals with Culex pipiens pallens. Kind of experiment: Insecticidal activity against Culex pipiens pallens (mosquito) assessed as mortality at 0.001 ug/insect after 24 hr.
The subject of experiment [32] is Culex pipiens pallens. Put plainly: Insecticidal activity against Culex pipiens pallens (mosquito) assessed as mortality at 0.004 ug/insect after 24 hr.
The subject of experiment [33] is Culex pipiens pallens. Put plainly: Insecticidal activity against Culex pipiens pallens (mosquito) assessed as mortality at 0.00025 ug/insect after 24 hr.
The subject of experiment [34] is Culex pipiens pallens. Put plainly: Insecticidal activity against Culex pipiens pallens (mosquito) assessed as mortality at 0.0005 ug/insect after 24 hr.

Molecules are shown by their SMILES. Converted amounts (≈) assume the structure as drawn.

Regarding `NN1C(=O)CSC1=S` [AMINORHODANINE], the Activity in [1] is reported as 33.3%; in experiment [2], 86.7%; in experiment [5] it was 10%; in [6] it was 100%; in experiment [8] it was 100%; in experiment [9], 53.3%. Further, the Activity in [10] is reported as 60%; in experiment [11], 86.7%; in [12] it was 36.7%; in experiment [13] it was 100%; in experiment [15] it was 3.3%; in experiment [16], 63.3%. Also, the Activity in [17] turned out to be 100%; in experiment [19], 16.7%; in experiment [21], 60%; in experiment [22], 17.9%; in [23], 0%. The MIC in experiment [3] came out at 12.5 µg/mL (≈ 0.0843 mM); in [4], 12.5 µg/mL (≈ 0.0843 mM); in [7], 25 µg/mL (≈ 0.169 mM); in experiment [14], 400 µg/mL (≈ 2.7 mM); in experiment [18] it was 6.25 µg/mL (≈ 0.0422 mM); in experiment [20] it was 100 µg/mL (≈ 0.675 mM).

`COP(=S)(OC)Oc1ccc([N+](=O)[O-])c(C)c1` [FENITROTHION]: the Activity in experiment [24] worked out at 50%; in experiment [25], 3.3%; in experiment [26] it was 100%; in [27] it was 100%; in [28] it was 0%; in [29], 93.3%. Besides, the Activity in experiment [30] was 46.7%; in [31] it was 16.7%; in experiment [32], 86.7%; in experiment [33] it was 0%; in [34] it was 3.3%.

On to `CC(=O)NN1C(=O)CSC1=S` [N-ACETYLAMINORHODANINE], for which the MIC in experiment [3], in [4], in experiment [7], in experiment [14], in experiment [18] and in experiment [20] was above 1000 µg/mL throughout. The Activity in experiment [6] and in experiment [8] was 0% throughout.

`O=C(NN1C(=O)CSC1=S)c1ccccc1` [N-BENZOYLAMINORHODANINE]: the MIC in experiment [3], in experiment [4], in experiment [7], in [14], in experiment [18] and in [20] was above 1000 µg/mL throughout. The Activity in experiment [6] and in experiment [8] was 0% throughout.

As to `O=C1CSC(=S)N1` [RHODANINE], the MIC was 200 µg/mL (≈ 1.5 mM) in [3]; 800 µg/mL (≈ 6.01 mM) in experiment [4]; 400 µg/mL (≈ 3 mM) in experiment [7]; 800 µg/mL (≈ 6.01 mM) in experiment [14]; 800 µg/mL (≈ 6.01 mM) in experiment [18]; above 1000 µg/mL in [20]. In addition, the Activity in [6] and in experiment [8] was 0% in each case.

For the origin of these results see ChEMBL document CHEMBL3046198, “Insecticidal and antifungal activities of aminorhodanine derivatives” (1998).
